The test has as its system Saccharomyces cerevisiae S288C strain. Briefly: Addition of peptide to medium of S288C strain; peptide content in dry cells and in extract by LC-MS/MS. The format is cell-based. The protocol: Absorbance of the obtained culture broth was measured, the culture broth was inoculated into SD medium (400 ml in a 2 L-volume conical flask with baffle fins, a pluratity of flasks) so that OD660 was 0.01 at the start of the culture (absorbance was measured by using DU640 SPECTROPHTOMETER, BECKMAN COULTER), and culture was performed at 30° C. for 19 hours with shaking by rotation at a velocity of 120 rpm. From the obtained culture broth, 400 OD units of the cells (1 OD unit is defined as cells contained in 1 ml of culture broth of which OD660 is 1) were collected by centrifugal separation. The supernatant was removed as much as possible, and the residual cells were suspended in 45 ml of Milli-Q water. The cells were collected again by centrifugal separation, and resuspended in 45 ml of Milli-Q water. By repeating this operation 3 times in total, the medium was completely removed from the cells. The washed cells were suspended in about 1.5 ml of Milli-Q water, and the suspension was heated at 70° C. for 10 minutes. By this step, the extractable components contained in the cells were extracted. Then, the extract and the cell residue were separated by centrifugation.
Cell debris were removed from the extract using a centrifugal filtration membrane of 10 kDa (Amicon Ultra—0.5 mL 10K, MILLIPORE, Catalogue Number UFC501096)), the obtained fraction was derivatized with the AQC reagent in the same manner as that used in Example 1, and γ-Glu-Val-Gly and γ-Glu-Val were measured by LC-MS/MS. Separately, the amount of GSH in the cells was measured in a conventional manner (GSH in the extract was derivatized by using a fluorescence reagent ABD-F that binds to thiol group, separated and quantified by HPLC). Furthermore, dry cell weight was measured after the washed cells were dried at 104° C. for 4 hours. From the amounts of γ-Glu-Val-Gly and γ-Glu-Val in the extract prepared from the cells that was contained in a certain volume of culture broth and dry cell weight measured as described above, the amount of these peptides based on weight of dried cells was calculated. […]
One loop of the S288C strain was inoculated into SD medium (50 ml in a 500 ml-volume Sakaguchi flask), and cultured at 30° C. for 24 hours with shaking at a velocity of 120 rpm. Absorbance of the obtained culture broth was measured, the culture broth was inoculated into SD medium (400 ml in a 2 L-volume conical flask with baffle fins, two or more flasks) so that OD660 was 0.01 at the start of the culture, and culture was performed at 30° C. for 19 hours with shaking by rotation at a velocity of 120 rpm. After 19 hours, γ-Glu-Val-Gly aqueous solutions of various concentrations were added to obtain predetermined concentrations, and the culture was continued for 1 hour. Using these culture broths, the γ-Glu-Val-Gly content in dry cells was calculated in the same manner as in Example 2. Furthermore, the solid content of the extract was calculated, and the amount of γ-Glu-Val-Gly in the solid content was also calculated. […]
The cells were collected from the total culture broth, and washed in the same manner as that of Example 2. The washed cells in an amount of 400 OD units were suspended in 1.5 ml of Milli-Q water. This suspension was maintained at 70° C. for 10 minutes to produce an extract from the yeast cells. Furthermore, the suspension was centrifuged to remove the cell residues and thereby collect only the extract. The γ-Glu-Val-Gly concentration of this extract (extract of addition experiment) was measured to be about 300 ppm, and solid content was about 1%. The γ-Glu-Val-Gly concentration in an extract prepared in the same way but without adding γ-Glu-Val-Gly to the culture broth (extract of no addition experiment) was below the quantitation limit, and solid content was about 1%.
One loop of the S288C strain was inoculated into SD medium (50 ml in a 500 ml-volume Sakaguchi flask), and cultured at 30° C. for 24 hours with shaking at a velocity of 120 rpm. […]

Setting [1] is: 0.01 ppm γ-Glu-Val-Gly added to medium after 19 hours, culture continued 1 hour.
Setting [2] is: 0.1 ppm γ-Glu-Val-Gly added to medium after 19 hours, culture continued 1 hour.
The mark [3] stands for this setting: 1 ppm γ-Glu-Val-Gly added to medium after 19 hours, culture continued 1 hour.
Where [4] appears, read: 5 ppm γ-Glu-Val-Gly added to medium after 19 hours, culture continued 1 hour.
Setting [5] is: 10 ppm γ-Glu-Val-Gly added to medium after 19 hours, culture continued 1 hour.
The mark [6] stands for this setting: 100 ppm γ-Glu-Val-Gly added to medium after 19 hours, culture continued 1 hour.

`CC(C)[C@H](NC(=O)CC[C@H](N)C(=O)O)C(=O)NCC(=O)O` [γ-Glu-Val-Gly]: the “γ-Glu-Val-Gly content in dry cells” value by setting is: under setting [1], 5 ppm; under setting [2], 28 ppm; under setting [3], 363 ppm; under setting [4], 2647 ppm; under setting [5], 5341 ppm; under setting [6], 10191 ppm. The “γ-Glu-Val-Gly content in dry cells” value (γ-Glu-Val-Gly 100 ppm added to SD medium in advance, culture 16 hours) is given as “about 20,000 ppm”. Besides, the “γ-Glu-Val-Gly content in solid content of extract” value is on record as 21 ppm under setting [1]; 96 ppm under setting [2]; 1110 ppm under setting [3]; 10119 ppm under setting [4]; 17408 ppm under setting [5]; 32183 ppm under setting [6]. Further, the “γ-Glu-Val-Gly concentration of extract” value (50 ppm γ-Glu-Val-Gly added after 19 hours, culture continued 1 hour, 400 OD units in 1.5 ml, solid content about 1%) is given as “about 300 ppm”.

The record behind these values is patent US9034403B2, “Yeast extract containing γ-Glu-X or γ-Glu-X-Gly and a method for producing the same” (AJINOMOTO CO., INC., priority 2010, dated 2015).
